Measurements from article PMC2849142 (Clinical and translational science, 2009).
Like-named read-outs stand apart in the source and are kept apart here.

Legend:
[1] = system: C57Bl/6 mice; assay: Cardiomyocyte cross-sectional area on H&E-stained heart sections of treated mice; format: in vivo, mouse; conditions: 25 mg/kg/d, 5 weeks, p < 0.01 vs. vehicle, n = 4
[2] = system: AMPK; assay: AICAR-induced activation of AMPK in NRVMs; format: cell-based, rat; conditions: for activity of AMPK following AICAR, as determined by ACC phosphorylation: NRVMs pre-treated 4h, then AICAR 1 mM 1h
[3] = system: mitochondria; conditions: cited from earlier work
[4] = system: patients; conditions: cited from earlier work
[5] = system: C57Bl/6 mice; assay: Myocardial capillary density; format: in vivo, mouse; conditions: 25 mg/kg/d, 5 weeks, isolectin B4, n = 3
[6] = system: C57Bl/6 mice; assay: Echocardiographic indices of sunitinib-treated mice; format: in vivo, mouse; conditions: 25 mg/kg/d in chow, 5 weeks, mean ± SD
[7] = system: Neonatal rat ventricular myocytes (NRVMs); assay: Mitochondrial membrane potential; format: cell-based; conditions: 1 μM sunitinib, 12h
[8] = system: RET; conditions: read-out: IC50 vs RET; known sunitinib target; cited from earlier work
[9] = system: AMPK; assay: Phospho-ACC immunoblot in NRVMs; format: cell-based, rat; conditions: sunitinib 1 μM, p < 0.01, n = 4
[10] = system: Neonatal rat ventricular myocytes (NRVMs); assay: TUNEL staining of cultured cardiomyocytes; format: cell-based
[11] = ref http://www.pfizer.com/files/products/uspi_sutent.pdf; cited from earlier work
[12] = system: Neonatal rat ventricular myocytes (NRVMs); assay: ATP content of cultured cardiomyocytes; format: cell-based
[13] = system: AMPK; assay: Phospho-ACC immunoblot of heart lysates of treated mice; format: in vivo, mouse; conditions: 25 mg/kg/d, 5 wks, p < 0.05 vs. control, n = 4 hearts
[14] = system: AMPK; assay: Phospho-AMPK; format: cell-based, rat; conditions: NRVMs, sunitinib 1 μM; p < 0.01 vs. control, n = 4
[15] = system: mTORC1; assay: Phospho-eEF2 immunoblot in NRVMs; format: cell-based, rat; conditions: sunitinib 1 μM, p < 0.01, n = 4
[16] = target: CAMKK1 (Homo sapiens, UniProt Q8N5S9); assay: Recombinant biochemical kinase assay, sunitinib vs CAMKK1
[17] = system: NRVMs; conditions: cited from earlier work
[18] = system: NRVMs; assay: Rescue of sunitinib injury in NRVMs by AMPK activators; conditions: cells pre-treated with AICAR, then exposed to sunitinib

Chain of CAMKK1 (Q8N5S9 whole entry): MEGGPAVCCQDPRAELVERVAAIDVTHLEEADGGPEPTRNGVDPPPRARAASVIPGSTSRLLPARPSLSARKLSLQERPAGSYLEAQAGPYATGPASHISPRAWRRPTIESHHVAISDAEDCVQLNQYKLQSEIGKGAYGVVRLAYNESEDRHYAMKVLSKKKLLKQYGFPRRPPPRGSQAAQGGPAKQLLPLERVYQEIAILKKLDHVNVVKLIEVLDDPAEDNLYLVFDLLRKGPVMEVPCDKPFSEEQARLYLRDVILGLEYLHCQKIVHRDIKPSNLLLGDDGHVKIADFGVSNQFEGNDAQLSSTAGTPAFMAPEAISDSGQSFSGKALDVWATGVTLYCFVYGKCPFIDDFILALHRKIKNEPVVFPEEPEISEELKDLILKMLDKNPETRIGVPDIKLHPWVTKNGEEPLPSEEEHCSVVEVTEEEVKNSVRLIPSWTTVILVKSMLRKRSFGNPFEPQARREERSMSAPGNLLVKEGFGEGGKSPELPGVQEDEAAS

CCN(CC)CCNC(=O)c1c(C)[nH]c(/C=C2\C(=O)Nc3ccc(F)cc32)c1C [sunitinib]
cardiomyocyte size (cross-sectional area) on H & E-stained heart sections [1]: cardiomyocyte hypertrophy | activity of AMPK following AICAR, as determined by ACC phosphorylation [2]: significantly reduced | direct toxicity to mitochondria [3]: not directly toxic to mitochondria | patients developing congestive heart failure (CHF) [4]: 8–15% | myocardial capillary density [5]: does not alter | EF (ejection fraction) [6]: 52.5 ± 6.85% | FS (fractional shortening) [6]: 31.3 ± 5.07% | LVEDD (left ventricular end-diastolic dimension) [6]: 3.51 ± 0.18 mm | LVPW (left ventricular posterior wall thickness) [6]: 0.86 ± 0.06 mm | LVW/BW (left ventricular mass normalized to body weight) [6]: 4.49 ± 0.28 mg/g | LVESD (left ventricular end-systolic dimension) ([6]; P < 0.05 versus vehicle): 2.41 ± 0.27 mm | mitochondrial membrane potential (Δψm) [7]: loss of Δψm | IC50 [8]: […] | phosphorylation of ACC1/2 [9]: significantly reduced | cardiomyocyte apoptosis (TUNEL) ([10]; 28 hrs treatment, p < 0.05 vs. control): induce cardiomyocyte apoptosis | volume of distribution [11]: 2230 L | [ATP] in cardiomyocytes ([12]; 8h treatment, p < 0.05 vs. control): significantly reduced | phosphorylation of ACC2 in the heart in vivo [13]: significantly reduced | phosphorylation of AMPK at the activating site (T172) [14]: modest but consistent increase | phosphorylation of eEF2 [15]: marked increase | IC50 ([16]; IC50 vs CAMKK1 (range)): 4.5 to 6 µM | IC50 ([16]; Mean IC50, recombinant biochemical kinase assays, two to seven sets of assays): 5.25 µM

CN(C)C(=N)N=C(N)N [metformin]
reduction of sunitinib injury in NRVMs [17]: failed to reduce sunitinib injury

c1cc(-c2cnn3cc(-c4ccc(OCCN5CCCCC5)cc4)cnc23)ccn1 [Compound C]
activity of AMPK following AICAR, as determined by ACC phosphorylation [2]: Inhibition | cardiomyocyte apoptosis (TUNEL) [10]: induced apoptosis | [ATP] in cardiomyocytes [12]: reduction in [ATP]

NC(=O)c1ncn([C@@H]2O[C@H](CO)[C@@H](O)[C@H]2O)c1N [AICAR]
AMPK signaling (phospho-ACC) in the setting of sunitinib ([2]; AICAR 1 mM 1h after sunitinib pre-treatment 4h): failed to increase AMPK signaling | rescue of sunitinib toxicity by pre-treatment with the AMPK activator [18]: failed to rescue
